Measured values reported in patent US20260234159A1, “SMALL MOLECULE TREATMENT OF FATTY LIVER DISEASE AND HCC” (SCANDIEDGE THERAPEUTICS AB, priority 2023, published 2026).

Tests used:
p21 = assay: Nuclear protein western blot, p21; type: cell-based, human; conditions: 10 μM, 2 days
Experimental: (§1) HepG2 cells were seeded into a 6-well plate at 400,000 cells per well. After treatment with 10 μM of JNK-IN-5A and its derivatives for two days, lysates were harvested with CelLytic M (C2978, Sigma-Aldrich). 20 μg lysate was prepared with 2× Laemmli Sample Buffer (1610737, Biorad). SDS PAGE were performed using Mini-PROTEAN® TGX™ Precast Gels (Bio-Rad) and transferred using Trans-Blot® Turbo™ Transfer System (Bio-Rad). Primary antibody, PARP (95425, Cell signalling), Caspase 3 (ab32042, abcam), Bcl-2 (ab182858), STAT1 (HPA000982, Merk), PKL (06653, Sigma), PKM (4053S, Cell signalling), GAPDH (ab8245, abcam), P53 (ab32389, abcam), p21 (ab109199, abcam), p-S349 p62 (ab211324, abcam), p62 (ab109012, abcam), c-Myc (ab32072, abcam), GPX4 (ab125066, abcam), MMP9 (MA5-32705, Invitrogen), β-actin (ab8227, abcam), and α-tubulin (ab7291, abcam) were blotted overnight and Goat Anti-Rabbit HRP (ab205718) and goat anti-mouse IgG-HRP (sc2005, Santa Cruz Biotechnology, Inc.) were blotted for secondary antibody for one hour. ImageQuantTMLAS 500 (29-0050-63, GE) was used to detect protein bands.

PKL = assay: Western blot, PKL; type: cell-based, human; conditions: 10 μM, 2 days
Experimental: as §1

[1] = In vivo biosafety study in rats: histopathological and immunohistochemical examination; design: species or system Sprague Dawley male rats; conditions: 30 mg/kg, seven days
Experimental: In vivo biosafety studies. Healthy Sprague Dawley male rats (12 weeks old, 250-280 g) were obtained from Atatürk University Experimental Research Center ([…] Turkey) and housed under standard environmental conditions (temperature 20° C.-25° C., humidity 50±20% and 12-hour light/dark diurnal cycle). Food and water were available ad libitum. Rats were randomly separated into one control group and two experimental groups (30 mg/kg/day BX-912 or JNK-IN-5A, n=5). […] The control group were received the same amount of vehicle solution only. After 7 days, rats were anaesthetized, and blood samples were collected from the abdominal aorta for biochemical and haematological analysis. The plasma was separated and stored at -80° C. for further analysis. Major organs such as heart, kidney, liver, muscle, adipose, intestine (duodenum, ileum, jejunum), pancreas, colon, and stomach were collected from all the animals for further analysis. Selected organs were fixed in 10% neutral buffered formalin for histopathological examination. Histopathological examination. […] Immunohistochemical examination. […] Slides were counter stained with hematoxylin.

HepG2 cells = assay: Cellular ROS assay (DCFDA); type: cell-based, human; conditions: 10 μM, one day
Experimental: HepG2 cells were seeded into a 6-well plate at 400,000 cells per well. After treatment with the compounds at desired concentration and time, TMRE (ab113852, abcam), Autophagy (ab139484, abcam), ROS (ab113851, abcam), and Lipid peroxidation (ab243377, abcam) assay were performed according to manufacturer's instructions. Fluorescence images were taken using ZOE™ Fluorescent Cell Imager (Biorad) and ROI of fluorescence intensity was measured and calculated by Image J. For microplate reader florescence assay, 40,000 of HepG2 cells were seeded into a 96-well plate and triplicated. GFP (Ex480 nm, Em530 nm) and RFP (Ex549 nm, Em574 nm) were measured using a microplate reader (Hidex Sense Meta Plus).

SMILES | p21 nuclear localization (p21) | PKL expression (PKL) | histological structures of major organs [1] | side effects on the rats [1] | 8-OH-dG expression in liver tissues ([1]; IHC) | cellular ROS (HepG2 cells)
N#Cc1c(NC(=O)c2cccc3ccccc23)sc2c1CCCC2 [JNK-IN-5A, N-(3-cyano-4,5,6,7-tetrahydrobenzo[b]thiophen-2-yl)-1-naphthamide] | localized in the nucleus | notably decreased | normal histological structures | no side effects | negative | 
N#Cc1c(NC(=O)c2cccc3ccccc23)sc2c1CCN(CC(=O)Nc1cccc(Br)c1)C2 [PKL-B171] |  |  |  |  |  | significantly increased
